The NIST ThermoML archive (doi:10.1021/je060496l)
Numbers after ± are expanded uncertainties.

Assay: xn = mol fraction of the nth substance listed
Conditions: 101 kPa, Liquid

CC(O)CO (configuration not stated) [1,2-propanediol] + OCC(O)CO
mass density [kg/m3]
Conditions | x2 = 0 | x2 = 0.0841 | x2 = 0.1712 | x2 = 0.2615 | x2 = 0.3552 | x2 = 0.4524 | x2 = 0.5534 | x2 = 0.6585 | x2 = 0.7677 | x2 = 0.8815
298.15 K | 1032.5 ± 1.6 | 1052.6 ± 1.6 | 1072.7 ± 1.6 | 1094.1 ± 1.7 | 1115.8 ± 1.7 | 1138.3 ± 1.7 | 1161 ± 1.8 | 1184.4 ± 1.8 | 1207.8 ± 1.9 | 1233.3 ± 1.9
303.15 K | 1029.2 ± 1.6 | 1049.2 ± 1.7 | 1069.6 ± 1.7 | 1090.5 ± 1.7 | 1112.6 ± 1.8 | 1134.8 ± 1.8 | 1157.5 ± 1.8 | 1181.2 ± 1.9 | 1205 ± 1.9 | 1230.1 ± 2
308.15 K | 1025.3 ± 1.7 | 1045.7 ± 1.7 | 1066.1 ± 1.8 | 1087.1 ± 1.8 | 1109.3 ± 1.8 | 1131.4 ± 1.9 | 1154.2 ± 1.9 | 1178 ± 2 | 1202.2 ± 2 | 1227.4 ± 2
313.15 K | 1021.5 ± 1.8 | 1042 ± 1.8 | 1062.4 ± 1.8 | 1083.8 ± 1.9 | 1105.6 ± 1.9 | 1128.2 ± 1.9 | 1151.2 ± 2 | 1175.1 ± 2 | 1199.2 ± 2.1 | 1224.4 ± 2.1
318.15 K | 1018 ± 1.8 | 1038.5 ± 1.8 | 1058.6 ± 1.9 | 1080.2 ± 1.9 | 1102.3 ± 2 | 1124.8 ± 2 | 1147.9 ± 2 | 1171.5 ± 2.1 | 1195.6 ± 2.1 | 1221 ± 2.2
323.15 K | 1014 ± 1.9 | 1034.7 ± 1.9 | 1055 ± 1.9 | 1076.3 ± 2 | 1098.3 ± 2 | 1121.2 ± 2.1 | 1144.1 ± 2.1 | 1168.1 ± 2.1 | 1192.5 ± 2.2 | 1218 ± 2.2
328.15 K | 1010.2 ± 1.9 | 1031 ± 2 | 1051.4 ± 2 | 1072.7 ± 2 | 1094.7 ± 2.1 | 1117.5 ± 2.1 | 1140.5 ± 2.2 | 1164.6 ± 2.2 | 1189 ± 2.2 | 1214.7 ± 2.3
333.15 K | 1006.2 ± 2 | 1027.2 ± 2 | 1047.6 ± 2.1 | 1069.2 ± 2.1 | 1091.2 ± 2.1 | 1114.3 ± 2.2 | 1137.3 ± 2.2 | 1161.3 ± 2.3 | 1185.8 ± 2.3 | 1211.3 ± 2.4

OCC(O)CO [glycerol] + CC(C)O
mass density [kg/m3]
Conditions | x1 = 0.0676 | x1 = 0.1402 | x1 = 0.2185 | x1 = 0.3031 | x1 = 0.3949 | x1 = 0.4946 | x1 = 0.6036 | x1 = 0.723 | x1 = 0.8545 | x1 = 1
298.15 K | 813.5 ± 1.2 | 848.6 ± 1.3 | 887.5 ± 1.3 | 929.1 ± 1.4 | 974.3 ± 1.5 | 1023.8 ± 1.5 | 1077 ± 1.6 | 1135.2 ± 1.7 | 1196.5 ± 1.8 | 1258.9 ± 2
303.15 K | 809.5 ± 1.2 | 844.7 ± 1.3 | 883.8 ± 1.4 | 926.4 ± 1.4 | 970.6 ± 1.5 | 1020 ± 1.6 | 1073.4 ± 1.7 | 1131.9 ± 1.8 | 1193.4 ± 1.9 | 1255.6 ± 2
308.15 K | 805.5 ± 1.3 | 840.5 ± 1.4 | 879.9 ± 1.4 | 922.3 ± 1.5 | 967.3 ± 1.6 | 1016.2 ± 1.7 | 1070.4 ± 1.8 | 1128.5 ± 1.9 | 1190 ± 2 | 1252.7 ± 2.1
313.15 K | 801.4 ± 1.4 | 836.1 ± 1.4 | 875.9 ± 1.5 | 918.4 ± 1.5 | 963.4 ± 1.6 | 1012.6 ± 1.7 | 1067 ± 1.8 | 1125 ± 1.9 | 1186.8 ± 2 | 1249.5 ± 2.1
318.15 K | 796.8 ± 1.4 | 831.9 ± 1.5 | 871.7 ± 1.5 | 914.5 ± 1.6 | 959.2 ± 1.7 | 1008.7 ± 1.8 | 1063.1 ± 1.9 | 1121.3 ± 2 | 1183.2 ± 2.1 | 1246.2 ± 2.2
323.15 K | 792.2 ± 1.5 | 827.6 ± 1.5 | 867.4 ± 1.6 | 910.2 ± 1.7 | 955.3 ± 1.8 | 1004.8 ± 1.9 | 1059.6 ± 1.9 | 1117.6 ± 2 | 1180.3 ± 2.2 | 1242.9 ± 2.3
328.15 K | 787.5 ± 1.5 | 823.3 ± 1.6 | 863.3 ± 1.6 | 906.2 ± 1.7 | 951.3 ± 1.8 | 1000.9 ± 1.9 | 1055.7 ± 2 | 1114.1 ± 2.1 | 1176.6 ± 2.2 | 1239.6 ± 2.3
333.15 K | 782.9 ± 1.6 | 818.4 ± 1.6 | 858.8 ± 1.7 | 901.6 ± 1.8 | 947.5 ± 1.9 | 997.2 ± 2 | 1051.9 ± 2.1 | 1110.5 ± 2.2 | 1173.1 ± 2.3 | 1236 ± 2.4

OCC(O)CO [glycerol] + CC(O)CO
x1 = 1
Conditions | mass density [kg/m3]
298.15 K | 1258.9 ± 2
303.15 K | 1255.6 ± 2
308.15 K | 1252.7 ± 2.1
313.15 K | 1249.5 ± 2.1
318.15 K | 1246.2 ± 2.2
323.15 K | 1242.9 ± 2.3
328.15 K | 1239.6 ± 2.3
333.15 K | 1236 ± 2.4

OCC(O)CO [glycerol] + CCCO
mass density [kg/m3]
Conditions | x1 = 0.0676 | x1 = 0.1402 | x1 = 0.2185 | x1 = 0.3031 | x1 = 0.3949 | x1 = 0.4946 | x1 = 0.6036 | x1 = 0.723 | x1 = 0.8545 | x1 = 1
298.15 K | 832.8 ± 1.2 | 867.3 ± 1.3 | 903.5 ± 1.3 | 942.9 ± 1.4 | 986 ± 1.5 | 1032.7 ± 1.6 | 1083.1 ± 1.6 | 1138.8 ± 1.7 | 1198.7 ± 1.8 | 1258.9 ± 2
303.15 K | 828.9 ± 1.3 | 863.2 ± 1.3 | 900 ± 1.4 | 939.3 ± 1.5 | 982.1 ± 1.5 | 1029.5 ± 1.6 | 1079.9 ± 1.7 | 1135.7 ± 1.8 | 1195.6 ± 1.9 | 1255.6 ± 2
308.15 K | 825 ± 1.3 | 859.4 ± 1.4 | 896 ± 1.5 | 935.6 ± 1.5 | 978.4 ± 1.6 | 1025.9 ± 1.7 | 1076.3 ± 1.8 | 1132.4 ± 1.9 | 1192.7 ± 2 | 1252.7 ± 2.1
313.15 K | 820.7 ± 1.4 | 855.4 ± 1.4 | 892.1 ± 1.5 | 931.5 ± 1.6 | 974.7 ± 1.7 | 1022.3 ± 1.8 | 1072.7 ± 1.8 | 1128.8 ± 1.9 | 1189.5 ± 2 | 1249.5 ± 2.1
318.15 K | 816.8 ± 1.4 | 851.3 ± 1.5 | 888.3 ± 1.6 | 927.7 ± 1.6 | 970.8 ± 1.7 | 1018.4 ± 1.8 | 1069.2 ± 1.9 | 1125.5 ± 2 | 1186.1 ± 2.1 | 1246.2 ± 2.2
323.15 K | 812.5 ± 1.5 | 847.2 ± 1.6 | 884.1 ± 1.6 | 923.6 ± 1.7 | 966.8 ± 1.8 | 1014.7 ± 1.9 | 1065.5 ± 2 | 1122 ± 2.1 | 1182.7 ± 2.2 | 1242.9 ± 2.3
328.15 K | 808.4 ± 1.6 | 843.1 ± 1.6 | 880.3 ± 1.7 | 919.7 ± 1.8 | 963.3 ± 1.9 | 1010.8 ± 1.9 | 1061.8 ± 2 | 1118.3 ± 2.1 | 1179.2 ± 2.2 | 1239.6 ± 2.3
333.15 K | 804.3 ± 1.6 | 839.2 ± 1.7 | 876.3 ± 1.8 | 915.7 ± 1.8 | 959.4 ± 1.9 | 1006.8 ± 2 | 1058 ± 2.1 | 1114.3 ± 2.2 | 1175.8 ± 2.3 | 1236 ± 2.4

OCC(O)CO [glycerol] + OCCCO
x1 = 1
Conditions | mass density [kg/m3]
298.15 K | 1258.9 ± 2
303.15 K | 1255.6 ± 2
308.15 K | 1252.7 ± 2.1
313.15 K | 1249.5 ± 2.1
318.15 K | 1246.2 ± 2.2
323.15 K | 1242.9 ± 2.3
328.15 K | 1239.6 ± 2.3
333.15 K | 1236 ± 2.4

OCCCO [propan-1,3-diol] + OCC(O)CO
mass density [kg/m3]
Conditions | x2 = 0 | x2 = 0.0841 | x2 = 0.1712 | x2 = 0.2615 | x2 = 0.3552 | x2 = 0.4524 | x2 = 0.5534 | x2 = 0.6585 | x2 = 0.7677 | x2 = 0.8815
298.15 K | 1049.9 ± 1.6 | 1067.8 ± 1.7 | 1086.4 ± 1.7 | 1105.7 ± 1.7 | 1125.6 ± 1.7 | 1146.4 ± 1.8 | 1167.6 ± 1.8 | 1189.3 ± 1.8 | 1212.6 ± 1.9 | 1235.2 ± 1.9
303.15 K | 1047 ± 1.7 | 1065 ± 1.7 | 1083.5 ± 1.8 | 1103 ± 1.8 | 1122.8 ± 1.8 | 1143.4 ± 1.8 | 1164.6 ± 1.9 | 1186.4 ± 1.9 | 1209 ± 1.9 | 1232.1 ± 2
308.15 K | 1044.1 ± 1.8 | 1062 ± 1.8 | 1080.6 ± 1.8 | 1100 ± 1.8 | 1119.8 ± 1.9 | 1140.6 ± 1.9 | 1161.8 ± 1.9 | 1183.5 ± 2 | 1206.1 ± 2 | 1229.3 ± 2
313.15 K | 1040.8 ± 1.8 | 1058.8 ± 1.9 | 1077.5 ± 1.9 | 1096.9 ± 1.9 | 1116.8 ± 1.9 | 1137.3 ± 2 | 1158.7 ± 2 | 1180.4 ± 2 | 1203 ± 2.1 | 1226.1 ± 2.1
318.15 K | 1037.8 ± 1.9 | 1055.7 ± 1.9 | 1074.5 ± 1.9 | 1093.9 ± 2 | 1113.7 ± 2 | 1134.3 ± 2 | 1155.6 ± 2.1 | 1177.2 ± 2.1 | 1199.7 ± 2.1 | 1222.8 ± 2.2
323.15 K | 1034.8 ± 2 | 1052.7 ± 2 | 1071.4 ± 2 | 1090.9 ± 2 | 1110.7 ± 2.1 | 1131.2 ± 2.1 | 1152.5 ± 2.1 | 1174.1 ± 2.2 | 1196.6 ± 2.2 | 1219.8 ± 2.2
328.15 K | 1031.4 ± 2 | 1049.3 ± 2 | 1068.1 ± 2.1 | 1087.6 ± 2.1 | 1107.5 ± 2.1 | 1127.8 ± 2.2 | 1149.2 ± 2.2 | 1170.8 ± 2.2 | 1193.4 ± 2.3 | 1216.6 ± 2.3
333.15 K | 1028.2 ± 2.1 | 1046.1 ± 2.1 | 1064.9 ± 2.1 | 1084.4 ± 2.2 | 1104.1 ± 2.2 | 1124.6 ± 2.2 | 1145.9 ± 2.3 | 1167.5 ± 2.3 | 1190 ± 2.3 | 1213.3 ± 2.4

CCCO [propan-1-ol] + OCC(O)CO
x2 = 0
Conditions | mass density [kg/m3]
298.15 K | 799.6 ± 1.2
303.15 K | 795.5 ± 1.2
308.15 K | 791.5 ± 1.3
313.15 K | 787.3 ± 1.3
318.15 K | 783.3 ± 1.4
323.15 K | 779 ± 1.4
328.15 K | 774.9 ± 1.5
333.15 K | 770.8 ± 1.6

CC(C)O [propan-2-ol] + OCC(O)CO
x2 = 0
Conditions | mass density [kg/m3]
298.15 K | 780.6 ± 1.2
303.15 K | 776.6 ± 1.2
308.15 K | 772.3 ± 1.3
313.15 K | 767.9 ± 1.3
318.15 K | 763.3 ± 1.3
323.15 K | 758.6 ± 1.4
328.15 K | 753.8 ± 1.4
333.15 K | 748.9 ± 1.5
